Assay results reported in patent US20060063759A1, “Tricyclic steroid hormone nuclear receptor modulators” (priority 2002, published 2006).
Like-named read-outs stand apart in the source and are kept apart here.

Experiments:
human MR = molecular target: T1, human MR (Homo sapiens, UniProt P08235); assay: Mineralocorticoid Receptor Binding Assay ([3H]-aldosterone)
T1 construct: The full length human MR gene is cloned from a human kidney or human brain cDNA library; His tag from the pAcHLT vector (own knowledge); made in house; host or cells: Sf9 insect cells (baculovirus, pAcHLT transfer vector)
T1 sequence (P08235 1-984): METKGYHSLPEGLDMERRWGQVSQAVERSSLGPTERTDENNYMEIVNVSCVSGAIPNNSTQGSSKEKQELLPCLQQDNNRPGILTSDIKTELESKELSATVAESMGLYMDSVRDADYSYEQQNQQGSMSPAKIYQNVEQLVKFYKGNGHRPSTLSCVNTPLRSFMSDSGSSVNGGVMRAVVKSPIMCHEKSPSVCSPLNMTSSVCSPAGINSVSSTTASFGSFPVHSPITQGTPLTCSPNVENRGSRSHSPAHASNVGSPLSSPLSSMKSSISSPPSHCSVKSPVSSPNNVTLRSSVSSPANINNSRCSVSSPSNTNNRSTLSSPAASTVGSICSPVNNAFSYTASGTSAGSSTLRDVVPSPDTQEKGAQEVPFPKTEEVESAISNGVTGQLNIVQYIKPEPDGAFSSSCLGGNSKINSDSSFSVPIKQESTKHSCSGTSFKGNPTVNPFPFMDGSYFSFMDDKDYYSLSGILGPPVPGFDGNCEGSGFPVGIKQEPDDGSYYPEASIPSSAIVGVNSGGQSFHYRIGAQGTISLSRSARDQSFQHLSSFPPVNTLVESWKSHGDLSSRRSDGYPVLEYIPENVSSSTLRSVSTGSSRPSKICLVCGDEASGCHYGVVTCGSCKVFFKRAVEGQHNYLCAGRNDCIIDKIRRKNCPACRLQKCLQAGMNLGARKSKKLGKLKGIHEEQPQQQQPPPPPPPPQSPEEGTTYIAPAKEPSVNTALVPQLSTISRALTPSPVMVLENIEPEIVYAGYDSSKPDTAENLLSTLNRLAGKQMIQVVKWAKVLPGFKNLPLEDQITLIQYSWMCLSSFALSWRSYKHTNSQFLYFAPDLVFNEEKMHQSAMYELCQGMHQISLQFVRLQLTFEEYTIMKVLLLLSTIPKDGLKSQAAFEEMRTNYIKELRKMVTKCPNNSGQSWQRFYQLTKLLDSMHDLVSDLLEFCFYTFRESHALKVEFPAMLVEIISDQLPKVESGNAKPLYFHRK
Summary of the method: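 Lysate supernatant of Sf9 cells expressing full-length human MR (20-25 μg protein) was incubated with 0.5 nM [3H]-aldosterone and test compound in molybdate/Tris/phosphate/glycerol buffer, pH 7.5, ~16 h at 4 °C. Bound ligand was filtered and counted by scintillation; IC50 is the concentration halving [3H]-aldosterone binding.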

glucocorticoid receptor = molecular target: T2, glucocorticoid receptor (Homo sapiens, UniProt P04150); assay: Glucocorticoid Receptor Binding Assay ([3H]-dexamethasone, A549 cell extract); conditions: [3H]-dexamethasone binding, read-out: GR Ki
T2 construct: containing 50-200 ug of A549 cell extract and 1.86 nM [^3H]-dexamethasone; host or cells: A549 human lung epithelial cells (sonicated cell extract)
T2 sequence (P04150 1-777): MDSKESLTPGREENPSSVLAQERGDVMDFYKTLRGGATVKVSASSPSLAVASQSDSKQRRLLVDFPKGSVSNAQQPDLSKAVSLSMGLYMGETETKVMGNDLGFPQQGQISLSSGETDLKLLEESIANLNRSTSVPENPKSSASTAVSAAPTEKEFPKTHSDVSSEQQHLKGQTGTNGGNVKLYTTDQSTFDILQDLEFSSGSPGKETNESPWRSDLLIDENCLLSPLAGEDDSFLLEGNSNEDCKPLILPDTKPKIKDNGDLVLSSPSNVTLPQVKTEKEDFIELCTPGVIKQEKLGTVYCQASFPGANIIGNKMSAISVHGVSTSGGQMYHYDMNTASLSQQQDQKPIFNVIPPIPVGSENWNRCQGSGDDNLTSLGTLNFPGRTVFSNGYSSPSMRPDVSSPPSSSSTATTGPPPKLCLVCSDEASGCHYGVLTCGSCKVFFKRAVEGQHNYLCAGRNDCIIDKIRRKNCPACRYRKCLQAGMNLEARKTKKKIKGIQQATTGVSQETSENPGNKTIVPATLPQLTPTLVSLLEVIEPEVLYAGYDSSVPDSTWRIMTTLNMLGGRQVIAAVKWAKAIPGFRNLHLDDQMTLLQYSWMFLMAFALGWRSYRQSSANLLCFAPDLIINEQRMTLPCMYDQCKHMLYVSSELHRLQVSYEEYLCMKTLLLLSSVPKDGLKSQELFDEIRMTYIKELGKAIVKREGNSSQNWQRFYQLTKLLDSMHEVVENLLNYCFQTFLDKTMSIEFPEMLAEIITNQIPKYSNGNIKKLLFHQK
Summary of the method: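 A549 cell extract (50–200 ug) incubated with 1.86 nM [3H]-dexamethasone and test compound for 16 h at 4 °C in Tris-HCl pH 7.2 buffer with glycerol and molybdate. Unbound radioligand removed by dextran-coated charcoal, then supernatant bound counts measured by scintillation.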

[1] = [3H]-aldosterone binding, human MR expressed in Sf9 cells, read-out: MR Ki

Compound	Ki (human MR; [1])	Ki (glucocorticoid receptor)	Ki (human MR)
CCC(=C1c2ccc(C)cc2CCc2cc(C)ccc21)c1cccc(NS(C)(=O)=O)c1 [Example 772]	< 500 nM	< 500 nM	
CC(=C1c2ccccc2CCc2cc(C)ccc21)c1cccc(NS(C)(=O)=O)c1 [Example 773]	< 500 nM	< 500 nM	
CC(=C1c2ccc(F)cc2CCc2cc(F)ccc21)c1cccc(NS(C)(=O)=O)c1 [Example 775]	< 500 nM	< 500 nM	
CC(=C1c2ccc(Cl)cc2CCc2cc(Cl)ccc21)c1cccc(NS(C)(=O)=O)c1 [Example 777]	< 500 nM	< 500 nM	
CCC(=C1c2ccc(Cl)cc2CCc2cc(Cl)ccc21)c1cccc(NS(C)(=O)=O)c1 [Example 778]	< 500 nM	< 500 nM	
CC/C(=C1\c2ccccc2CCc2cc(C)ccc21)c1cccc(NS(C)(=O)=O)c1 [Example 779]	< 500 nM	< 500 nM	
CC(C)CC(=C1c2ccccc2CCc2ccccc21)c1cccc(NS(C)(=O)=O)c1 [Example 783]	< 500 nM	< 500 nM	
C/C(=C1/c2ccccc2COc2cc(C)ccc21)c1cccc(NS(C)(=O)=O)c1 [Example 786]	< 500 nM	< 500 nM	
C/C(=C1\c2ccccc2CCc2c(F)cccc21)c1cccc(NS(C)(=O)=O)c1 [Example 787]	< 500 nM	< 500 nM	
C/C(=C1/c2ccccc2COc2c(F)cccc21)c1cccc(NS(C)(=O)=O)c1 [Example 788]	< 500 nM	< 500 nM	
C/C(=C1\c2ccccc2COc2ccc(F)cc21)c1cccc(NS(C)(=O)=O)c1 [Example 789]	< 500 nM	< 500 nM	
C/C(=C1\c2cc(F)ccc2COc2ccccc21)c1cccc(NS(C)(=O)=O)c1 [Example 790]	< 500 nM	< 500 nM	
C/C(=C1\c2ccccc2CCc2cc(Cl)ccc21)c1cccc(NS(C)(=O)=O)c1 [Example 793]	< 500 nM	< 500 nM	
C/C(=C1/c2ccccc2COc2ccccc21)c1cccc(NS(C)(=O)=O)c1 [Example 796]	< 500 nM	< 500 nM	
C/C(=C1/c2ccc(Cl)cc2COc2ccccc21)c1cccc(NS(C)(=O)=O)c1 [Example 797]	< 500 nM	< 500 nM	
C/C(=C1\c2ccc(Cl)cc2COc2ccccc21)c1cccc(NS(C)(=O)=O)c1 [Example 798]	< 500 nM	< 500 nM	
CC/C(=C1\c2ccccc2COc2ccccc21)c1cccc(NS(C)(=O)=O)c1 [Example 799]	< 500 nM	< 500 nM	
CCC/C(=C1/c2ccccc2COc2ccccc21)c1cccc(NS(C)(=O)=O)c1 [Example 802]	< 500 nM	< 500 nM	
C/C(=C1/c2ccc(Cl)cc2COc2cc(F)ccc21)c1cccc(NS(C)(=O)=O)c1 [Example 803]	< 500 nM	< 500 nM	
C/C(=C1/c2ccccc2COc2cc(F)ccc21)c1cccc(NS(C)(=O)=O)c1 [Example 807]	< 500 nM	< 500 nM	
C/C(=C1/c2ccc(F)cc2COc2cc(F)ccc21)c1cccc(NS(C)(=O)=O)c1 [Example 809]	< 500 nM	< 500 nM	
C/C(=C1\c2ccc(F)cc2COc2cc(F)ccc21)c1cccc(NS(C)(=O)=O)c1 [Example 810]	< 500 nM	< 500 nM	
CC/C(=C1/c2ccccc2COc2cc(F)ccc21)c1cccc(NS(C)(=O)=O)c1 [Example 812]	< 500 nM	< 500 nM	
COc1ccc2c(c1)COc1ccccc1/C2=C(/C)c1cccc(NS(C)(=O)=O)c1 [Example 817]	< 500 nM	< 500 nM	
COc1ccc2c(c1)COc1cc(F)ccc1/C2=C(/C)c1cccc(NS(C)(=O)=O)c1 [Example 819]		< 500 nM	< 500 nM
COc1ccc2c(c1)COc1cc(F)ccc1/C2=C(\C)c1cccc(NS(C)(=O)=O)c1 [Example 820]		< 500 nM	< 500 nM
CC/C(=C1\c2ccc(OC)cc2COc2ccccc21)c1cccc(NS(C)(=O)=O)c1 [Example 822]	< 500 nM	< 500 nM	

More lines, main results first:

Ki (human MR; [1])	Ki (glucocorticoid receptor)	Compound	Ki (human MR)
< 500 nM	< 500 nM	CCC(=C1c2ccccc2CCc2cc(C)ccc21)c1cccc(NS(C)(=O)=O)c1 [Example 774]	
< 500 nM	< 500 nM	CCC(=C1c2ccc(F)cc2CCc2cc(F)ccc21)c1cccc(NS(C)(=O)=O)c1 [Example 776]	
< 500 nM	< 500 nM	CC/C(=C1/c2ccccc2CCc2cc(C)ccc21)c1cccc(NS(C)(=O)=O)c1 [Example 780]	
< 500 nM	< 500 nM	C/C(=C1\c2ccccc2COc2cc(C)ccc21)c1cccc(NS(C)(=O)=O)c1 [Example 784]	
< 500 nM	< 500 nM	C/C(=C1\c2ccccc2COc2cc(C)c(Br)cc21)c1cccc(NS(C)(=O)=O)c1 [Example 785]	
< 500 nM	< 500 nM	C/C(=C1/c2ccccc2CCc2cc(Cl)ccc21)c1cccc(NS(C)(=O)=O)c1 [Example 794]	
< 500 nM	< 500 nM	C/C(=C1\c2ccccc2COc2ccccc21)c1cccc(NS(C)(=O)=O)c1 [Example 795]	
< 500 nM	< 500 nM	CC/C(=C1/c2ccccc2COc2ccccc21)c1cccc(NS(C)(=O)=O)c1 [Example 800]	
< 500 nM	< 500 nM	CCC/C(=C1\c2ccccc2COc2ccccc21)c1cccc(NS(C)(=O)=O)c1 [Example 801]	
< 500 nM	< 500 nM	C/C(=C1\c2ccc(Cl)cc2COc2cc(F)ccc21)c1cccc(NS(C)(=O)=O)c1 [Example 804]	
< 500 nM	< 500 nM	CS(=O)(=O)Nc1cccc(/C(F)=C2\c3ccccc3COc3ccccc32)c1 [Example 806]	
< 500 nM	< 500 nM	C/C(=C1\c2ccccc2COc2cc(F)ccc21)c1cccc(NS(C)(=O)=O)c1 [Example 808]	
< 500 nM	< 500 nM	CC/C(=C1\c2ccccc2COc2cc(F)ccc21)c1cccc(NS(C)(=O)=O)c1 [Example 811]	
< 500 nM	< 500 nM	C/C(=C1\c2ccccc2COc2cc(OCC3CC3)ccc21)c1cccc(NS(C)(=O)=O)c1 [Example 813]	
< 500 nM	< 500 nM	C/C(=C1/c2ccccc2COc2cc(OCC3CC3)ccc21)c1cccc(NS(C)(=O)=O)c1 [Example 814]	
< 500 nM	< 500 nM	COc1ccc2c(c1)COc1ccccc1/C2=C(\C)c1cccc(NS(C)(=O)=O)c1 [Example 818]	
< 500 nM	< 500 nM	CC/C(=C1/c2ccc(OC)cc2COc2ccccc21)c1cccc(NS(C)(=O)=O)c1 [Example 821]	
< 500 nM	< 500 nM	CC/C(=C1/c2ccc(OC)cc2COc2cc(F)ccc21)c1cccc(NS(C)(=O)=O)c1 [Example 823]	
